Measurements reported in patent US20240226234A1, “WNT5A PEPTIDES FOR THE TREATMENT OF ACUTE M[…]” (W[…], priority 2021, published 2024).
No end group written: not given here. *: point of attachment. For = O=C*

Columns and labels:
K562 cells = experiment: Actin polymerization assay, K562 cells; type: cell-based, human; settings: K562, Foxy-5 100 μM 72 h
Method: F-actin polymerization was analyzed in treated leukemic cell lines using AlexaFluor 633-labeled phalloidin (A22284, Invitrogen) before and after CXCL12 stimulation. The cells were stimulated with CXCL12 (300 ng/ml; Peprotech) in serum-free media at 37 °C for 30 and 120 seconds. The reaction was stopped by adding 3 volumes of paraformaldehyde (3.7%) at room temperature for 10 min, then washed and permeabilized on ice. Cells were stained with 633-phalloidin (2 mg/mL). Flow cytometric data were analyzed using a FACS flow cytometer (BD) followed by FlowJo software analysis. The F-actin content obtained were normalized calculating the ratio between each stimulated cells-mean fluorescence intensity (MFI) values and the nonstimulated cells MFI from the basal levels of the control cells and expressed as fold change.
Therefore, we performed a flow cytometry analysis to evaluate whether Foxy-5 treatment would be able to disrupt actin polymerization. Leukemia cell lines were treated with Foxy-5 (100 μM) or vehicle during 72 hours, stimulated with CXCL12 (300 ng/ml) for 30 or 120 seconds, and stained with […] for detection of actin polymerization by flow cytometry. […] Thus, a significant reduction of actin polymerization was shown after Foxy-5 treatment when compared to untreated cells after 30 seconds of CXCL12 induction (P<. 001).

U937 cells [1] = experiment: Cell differentiation assay with PMA, U937 cells; type: cell-based, human; settings: U937, PMA (200 nM), 72 hours, morphology by microscopy
Method: Cells were subjected to treatment with Foxy-5 or with vehicle, in the presence or absence of PMA (200 nM). After 72 hours, adherent cells were washed with PBS and their morphology was examined using a Zeiss Axi-oskope 2 Plus microscope (Carl Zeiss AG). The program ImageJ was used to assess differentiation.
PMA reagent is a typical inducer of AML cell differentiation through generation of ROS. As U937 leukemia cell lineage corresponds to a model of differentiated monocyte and/or macrophage following treatment with PMA, we examined the effects of Foxy-5 treatment on U937 differentiation-inducing PMA. Following treatment with PMA for 72 hours, cells were examined by microscopy to detect morphology. The majority of cells treated with vehicle and stimulated with PMA differentiated into macrophages and adhered to the plates.

U937 cells [2] = experiment: Autophagy assay (acridine orange), U937 cells; type: cell-based, human; settings: U937, 2D culture, 72 h
Method: (§1) A panel of human myeloid leukemia cell lines (HL60, K562, KG1a, THP1 and U937) and HS-5 mesenchymal stromal cells lineage were cultured in Roswell Park Memorial Institute medium-1640 (RPMI; Sigma) containing 10% Fetal Bovine Serum (Gibco), glutamine (2 mM; Sigma), penicillin (100 μg/mL; Sigma), streptomycin (100 μg/mL; Sigma), and amphotericin B (0.25 μg/mL; Gibco). The cells were maintained in a humidified atmosphere at 37° C. and 5% CO2 and the experiments were performed when they reached exponential growth. For the assays, cells were seeded on a 24-well plate and treated or not with Foxy-5 for 72 hours.
(§2) Cells treated with Foxy or with vehicle were collected and acids vesicles were measured by flow cytometry following staining with Acridine Orange (0.01 mg/mL; Sigma). Acquisition of cells was performed on a FACScalibur flow cytometer (BD) and analysis was carried out using the FlowJo software 4.
(§3) As autophagy is required for sustaining leukemia cell growth by induction of ROS production, we measured the levels of acidic granule formation by flow cytometry after Foxy-5 or vehicle treatment. […]

[3] = NOD/SCID mice, U937 xenograft, Foxy-5 vs vehicle, after 9 days
Method: For the xenograft mouse model, a concentration of 40 μg/μL of Foxy-5 was used. […] Mice were anesthetized with isoflurane (4%) and U937 cells (5,000,000 cells/mouse) were inoculated in the mouse dorsal region by subcutaneous injection. When the tumours reached 100 mm^3, the treatment was initiated. Foxy-5 was administered once every 2 days by intraperitoneal injection. The control group received equal amounts of vehicle solution. The tumour volumes were measured every 2 days and evaluated according to the formula: tumour volume (mm^3) ¼ (length×width^2)/2. After 9 days, the mice were sacrificed, the tumour excised and tumour dimensions (tumour volume (mm^3) and tumour weight (grams, g)) were evaluated.

KG1a cells = experiment: Autophagy assay (acridine orange), KG1a cells; type: cell-based, human; settings: 2D culture, 72 h
Method: as §1, §2, §3

U937 cells [4] = experiment: ROS production by flow cytometry, U937 cells; type: cell-based, human; settings: 72 h; for ROS production (MFI): U937, 2D culture on HS5 stromal cells; for ROS production (mean fluorescence intensity): U937, monoculture
Method: as §1
(§4) Cells treated with Foxy or with vehicle were collected and intracellular ROS generation was measured by flow cytometry following staining with DCFDA ([…]; Sigma). Acquisition of cells was performed on a FACScalibur flow cytometer (BD) and analysis was carried out using the FlowJo software.
(§5) Leukemia cell lines were treated for 72 h with Foxy-5, at doses of 50 and 100 μM, or vehicle, stained with DCFHA dye, and analyzed by flow cytometry.

HL60 cells = experiment: ROS production by flow cytometry, HL60 cells; type: cell-based, human; settings: 72 h; for ROS production (MFI): HL60, 2D culture on HS5 stromal cells; for ROS production (mean fluorescence intensity): HL60, monoculture
Method: as §1, §4, §5

U937 cells [5] = experiment: Cell growth assay, U937 cells; type: cell-based, human; settings: Foxy-5 100 μM, 72 h
Method: as §1
Cells treated with Foxy or with vehicle were collected and cell number was evaluated by manual counting in monoculture and by microscopy with Image J software analysis in 2D culture.
Next, we evaluated the proliferation rates since this process is modulated by ROS. We treated the cells with Foxy-5 (100 μM) or with vehicle (DMSO) during 72 hours, and then cell growth was analyzed by counting the cells in monoculture, manually, or by the Image J software analysis of the 2D cultures. […] Similar results were obtained in the 2D culture system using leukemia cells and HS-5 mesenchymal stromal cells.

Foxy-5: Formylated hexapeptide fragment of WNT5A: MDGCEL (SEQ. ID. NO. 3) with methionine in position 1 as N-formyl methionine; WNT5A-mimicking compound (For-MDGCEL; listed as Homo sapiens)
F-actin content following CXCL12 stimulation (K562 cells; CXCL12 300 ng/ml for 30 seconds): 1.37 fold increase | F-actin content following CXCL12 stimulation (K562 cells; CXCL12 300 ng/ml for 120 seconds): 1.31 fold increase | PMA-mediated differentiation compared with PMA-stimulated cells treated with vehicle (U937 cells [1]): reduced PMA-mediated differentiation | autophagy (acidic granule formation, acridine orange, average) (U937 cells [2]; Foxy-5 50 μM): 9.40 (range 7.68-11.00) MFI | autophagy (acidic granule formation, acridine orange, average) (U937 cells [2]; Foxy-5 100 μM): 6.30 (range 4.80-8.31) MFI | body weights of the xenograft mice [3]: did not vary significantly | autophagy (acidic granule formation, acridine orange, average) (KG1a cells; Foxy-5 50 μM): 27.30 (range 27.20-29.83) MFI | autophagy (acidic granule formation, acridine orange, average) (KG1a cells; Foxy-5 100 μM): 21.55 (range 19.05-22.40) MFI | ROS production (MFI) (U937 cells [4]; Foxy-5 50 μM): 20.90 (range 19.90-22.63) MFI | ROS production (MFI) (U937 cells [4]; Foxy-5 100 μM): 23.50 (range 21.70-23.80) MFI | ROS production (mean fluorescence intensity) (U937 cells [4]; Foxy-5 50 μM): 7.32 (range 4.80-8.67) MFI | ROS production (mean fluorescence intensity) (U937 cells [4]; Foxy-5 100 μM): 7.09 (range 4.70-8.40) MFI | ROS production (MFI) (HL60 cells; Foxy-5 50 μM): 28.52 (range 26.37-30.00) MFI | ROS production (MFI) (HL60 cells; Foxy-5 100 μM): 28.50 (range 25.03-30.30) MFI | ROS production (mean fluorescence intensity) (HL60 cells; Foxy-5 50 μM): 17.45 (range 16.40-19.30) MFI | ROS production (mean fluorescence intensity) (HL60 cells; Foxy-5 100 μM): 10.32 (range 10.10-10.80) MFI | reduced cell growth compared to vehicle treated cells (U937 cells [5]; U937, 2D culture with HS-5 stromal cells): 1.72 fold decrease | reduced cell growth compared to vehicle treated cells (U937 cells [5]; U937, monoculture): 1.75 fold decrease
